{"source": "patent US20220062255A1", "about": "(PRILENIA NEUROTHERAPEUTICS LTD., priority 2016, published 2022)", "key": {"[1]": {"system": "BDNF secretion from B104 neuroblastoma cells", "experiment": "BDNF in-situ ELISA, B104 neuroblastoma cells", "format": "cell-based, rat", "conditions": "together with pridopidine"}, "[2]": {"target": "T1, Sigma-2 receptor (S2R) (Homo sapiens, UniProt Q5BJF2)", "T1 construct": "Eurofins Panlabs Taiwan; Ltd. (performed the assay)", "T1 sequence (Q5BJF2 whole entry, species assumed)": "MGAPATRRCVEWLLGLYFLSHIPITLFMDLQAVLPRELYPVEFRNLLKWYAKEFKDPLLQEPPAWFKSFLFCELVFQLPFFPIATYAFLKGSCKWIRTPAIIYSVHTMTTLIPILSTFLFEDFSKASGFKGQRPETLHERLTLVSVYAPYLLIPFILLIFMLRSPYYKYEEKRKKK", "experiment": "In-vitro binding assay, Sigma-2 receptor", "conditions": "Cheng Prusoff; Eurofins Panlabs; source Johnston et al. 2019 and NC20-PHARM-2", "experimental": "(§1) In-vitro binding assays performed at Eurofins Panlabs Taiwan. Ltd. Specific ligand binding was determined in the presence of an excess of unlabelled ligand."}, "[3]": {"target": "T2, Sigma-1 Receptor (S1R) (Homo sapiens, UniProt Q99720)", "T2 construct": "Eurofins Panlabs Taiwan; Ltd. (performed the assay)", "T2 sequence (Q99720 whole entry, species assumed)": "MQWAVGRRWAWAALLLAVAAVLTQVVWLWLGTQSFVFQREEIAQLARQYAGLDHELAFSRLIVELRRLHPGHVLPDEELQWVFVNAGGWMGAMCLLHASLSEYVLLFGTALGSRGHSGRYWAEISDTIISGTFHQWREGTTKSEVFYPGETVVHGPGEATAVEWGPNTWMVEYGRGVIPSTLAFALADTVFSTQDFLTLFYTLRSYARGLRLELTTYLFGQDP", "experiment": "In-vitro binding assay, Sigma-1 receptor", "conditions": "Cheng Prusoff; Eurofins Panlabs; source Johnston et al. 2019 and NC20-PHARM-2", "experimental": "as §1"}, "[4]": {"system": "optic nerve axons", "conditions": "for Number of optic nerve axons, Lasered eye, Mean / Number of optic nerve axons, Control eye, Mean / loss of optic nerve axons, Difference % (LC eye vs control eye): day 14; for Number of optic nerve axons, Control eye, Mean: contralateral eye; for loss of optic nerve axons, Difference % (LC eye vs control eye): vehicle 27.5% in text; for Axonal protection (%): vs vehicle group", "experimental": "Neuroprotective preservation of visual function in glaucoma and other optic neuropathies depends not only on preservation of cell bodies, but also on maintaining connectivity between the eye and the brain. Connectivity is preserved by protecting RGC axons which make up the optic nerve. […] Unilateral induction of IOP elevation was performed twice, at day 0 and day 7. IOP increase was induced by 532 nm diode laser (Oculight® TX; Iridex) photocoagulation of episcleral veins, as previously described. IOP was measured with a TonoLab tonometer.\nIOP was measured at baseline, and after laser photocoagulation on days 1, 4, 7, 8, and 14.\nOn day 14, rats were sacrificed by transcardial perfusion, first with 0.9% NaCl solution, then with 4% PFA in 0.1M phosphate buffer, pH 7.4. Eyes and optic nerves were collected for immunohistochemical analysis.\nOptic nerves were postfixed in 4% PFA (in 0.1M phosphate buffer, pH 7.4), placed in 1% osmium, dehydrated in ascending alcohol concentrations, and placed in 1% uranyl acetate in 100% ethanol for 1 hour. Optic nerves were embedded in epoxy resin mixture at 60° C. for 48 hours and 1 μm sections prepared. Axon number was estimated using stereology.\nHigh IOPs immediately after LC procedure could be associated with retinal ischemia, and low IOP's could indicate failure to establish the model."}, "[5]": {"system": "wet AMD", "conditions": "long-term oral administration; paper example"}, "[6]": {"system": "Retinal Ganglion Cells (RGCs)", "conditions": "for RGC Loss (%): day 41, OD (OHT) vs OS eye, mean±SEM, DDW control 43±6%; for RGC neuroprotection (%): vs DDW control", "experimental": "In this model, sclerosis of the aqueous veins via retrograde introduction of hypertonic saline increases intraocular pressure (IOP). Hypertonic saline injection (HSI) was performed on day 0 and day 7 into the episcleral veins of the right eye of pigmented Brown Norway. Rats were sedated with ketamine and xylazine (40-80 and 5-10 mg/kg, respectively), kept warm and eyes moist to avoid desiccation during the procedure. Eye surface was treated with erythromycin (0.5%). On Days 0 and 7, hypertonic saline solution (250 μL, NaCl, 1.8-2.0M) was injected into the limbal vascular plexus via different episcleral veins in the OHT eye. For IOP measurement, corneas were anaesthetized with 0.5% proparacaine HCl ophthalmic solution and then IOP measured using a Tono-Pen Vet. Ten repeated readings were averaged from each eye. […] Over the course of the study, animals were clinically evaluated daily, and IOP and body weight measured weekly (FIG. 1).\nThe number of RGCs was quantified using immunofluorescent staining for the RGC marker brain-specific homeobox/POU domain protein 3A (Brn-3a), followed by image analysis. Eyes were immediately enucleated following CO2 euthanization and fixed in paraformaldehyde (PFA, 4%) at 4° C. for 24 hours, then dissected in PBS. Retinas were permeabilized in PBS+0.5% Triton X-100 for 15 minutes, frozen at −80° C. for 15 minutes, then rinsed in PBS-0.5% Triton. […] Four radial cuts were made in the retina and it was flat-mounted. Two regions of interest (medial and distal) were acquired in each quadrant (FIG. 3) with fluorescent microscopy, and RGCs counted using ImageJ.\nThe percent of RGC loss was calculated by comparing the number of RGC counts per retina in the OD eye to that in the OS eye from the same animal. […] RGC neuroprotection (%) in each animal was calculated as following: [100×((1−RGC Loss (%)/Average RGC Loss (%) in Control group))]. […] Representative images of RGC staining can be seen in FIG. 5."}, "[7]": {"system": "BDNF secretion from B104 neuroblastoma cells", "conditions": "in-situ ELISA; Geva, et al. 2016; cited from earlier work"}, "[8]": {"system": "glaucoma", "conditions": "long-term oral administration; paper example"}, "[9]": {"system": "RGCs", "conditions": "day 14; for number of RGCs per retinal area, Control eye, Mean: contralateral eye; for RGC Difference % (decrease, lasered vs control eye): vehicle 16.7%", "experimental": "In Wistar rats, the laser coagulation (LC) model of experimental glaucoma was utilized.\n(§2) Unilateral induction of IOP elevation was performed twice, at day 0 and day 7. IOP increase was induced by 532 nm diode laser (Oculight® TX; Iridex) photocoagulation of episcleral veins, as previously described. IOP was measured with a TonoLab tonometer.\n(§3) IOP was measured at baseline, and after laser photocoagulation on days 1, 4, 7, 8, and 14 (FIG. 10).\nOn day 14, rats were sacrificed by transcardial perfusion, first with 0.9% NaCl solution, then with 4% PFA in 0.1M phosphate buffer, pH 7.4. Eyes and optic nerves were collected for immunohistochemical analysis. The number of RGCs was quantified using immunofluorescent staining for RNA-binding protein with multiple splicing (RBPMS), an RGC-specific marker, and DAPI nuclear stain followed by stereological analysis of the entire retina (FIG. 11)."}, "[10]": {"system": "RGCs", "conditions": "topical to the HSI treated eye, paper example"}, "[11]": {"system": "optic neuropathy", "conditions": "long-term oral administration; paper example"}, "[12]": {"system": "dry AMD", "conditions": "long-term oral administration; paper example", "excerpt": "The pathological correlation for the decline of visual acuity is the progressive expansion of the degenerated area of the retina (i.e., geographic atrophy), specifically in the macula."}, "[13]": {"system": "retinitis pigmentosa", "conditions": "periodic oral administration; paper example"}, "[14]": {"system": "laser coagulation (LC) model of experimental glaucoma", "conditions": "for Area under curve (AUC) of IOP, Total Area: lasered eyes, vehicle 272, contralateral control 185", "experimental": "as §2, §3"}}, "note": "“And” between values parts separate entries of the source, which are not always exact repeats. Identical values can stand only once. Like-named read-outs stand apart in the source and are kept apart here."}
{"smiles": "CCCN1CCC(O)(c2cccc(S(C)(=O)=O)c2)CC1", "note": "[Compound 1]", "values": [{"measurement": "effect with pridopidine on BDNF secretion", "setting": "[1]", "result": "synergistic effect"}, {"measurement": "Ki", "setting": "[2]", "result": "> 100000", "unit": "nM"}, {"measurement": "Ki", "setting": "[3]", "result": 370, "unit": "nM"}]}
{"smiles": "CCCN1CC[C@@H](c2cccc(S(C)(=O)=O)c2)[C@@H](O)C1", "note": "[Compound 4]", "values": [{"measurement": "effect with pridopidine on BDNF secretion", "setting": "[1]", "result": "synergistic effect"}, {"measurement": "Ki", "setting": "[2]", "result": "> 100000", "unit": "nM"}, {"measurement": "Ki", "setting": "[3]", "result": 2900, "unit": "nM"}]}
{"smiles": "CCCN1CCC(c2cccc(S(C)(=O)=O)c2)CC1", "note": "[Pridopidine, 4-(3-(Methylsulfonyl)phenyl)-1-propylpiperidine]", "values": [{"measurement": "Number of optic nerve axons, Lasered eye, Mean", "setting": "[4]; 3 mg/kg oral daily", "result": 358}, {"measurement": "Number of optic nerve axons, Control eye, Mean", "setting": "[4]; 3 mg/kg oral daily", "result": 394}, {"measurement": "loss of optic nerve axons, Difference % (LC eye vs control eye)", "setting": "[4]; 3 mg/kg oral daily", "result": 8.6, "unit": "%"}, {"measurement": "Axonal protection (%)", "setting": "[4]; 3 mg/kg oral daily", "result": 69, "unit": "%"}, {"measurement": "Number of optic nerve axons, Lasered eye, Mean", "setting": "[4]; 30 mg/kg oral daily", "result": 363}, {"measurement": "Number of optic nerve axons, Control eye, Mean", "setting": "[4]; 30 mg/kg oral daily", "result": 433}, {"measurement": "loss of optic nerve axons, Difference % (LC eye vs control eye)", "setting": "[4]; 30 mg/kg oral daily", "result": 15, "unit": "%"}, {"measurement": "Axonal protection (%)", "setting": "[4]; 30 mg/kg oral daily", "result": 45, "unit": "%"}, {"measurement": "Number of optic nerve axons, Lasered eye, Mean", "setting": "[4]; 60 mg/kg oral daily", "result": 365}, {"measurement": "Number of optic nerve axons, Control eye, Mean", "setting": "[4]; 60 mg/kg oral daily", "result": 395}, {"measurement": "loss of optic nerve axons, Difference % (LC eye vs control eye)", "setting": "[4]; 60 mg/kg oral daily", "result": "7.24% and 7.6%"}, {"measurement": "Axonal protection (%)", "setting": "[4]; 60 mg/kg oral daily", "result": 74, "unit": "%"}, {"measurement": "efficacy in wet AMD patients", "setting": "[5]", "result": "effective in treating human patients with wet AMD"}, {"measurement": "RGC Loss (%)", "setting": "[6]; 3 mg/kg oral daily", "result": "25±7% and 25%"}, {"measurement": "RGC neuroprotection (%)", "setting": "[6]; 3 mg/kg oral daily", "result": 42, "unit": "%"}, {"measurement": "RGC Loss (%)", "setting": "[6]; 30 mg/kg oral daily", "result": "21±6% and 21%"}, {"measurement": "RGC neuroprotection (%)", "setting": "[6]; 30 mg/kg oral daily", "result": 50, "unit": "%"}, {"measurement": "RGC Loss (%)", "setting": "[6]; 60 mg/kg oral daily", "result": "7±9% and 7%"}, {"measurement": "RGC neuroprotection (%)", "setting": "[6]; 60 mg/kg oral daily", "result": 83, "unit": "%"}, {"measurement": "BDNF secretion in rat neuroblastoma cells", "setting": "[7]", "result": "dose dependent increase in BDNF secretion"}, {"measurement": "efficacy in glaucoma patients", "setting": "[8]", "result": "effective in treating human patients with glaucoma"}, {"measurement": "number of RGCs per retinal area, Lasered eye, Mean", "setting": "[9]; 3 mg/kg oral daily", "result": 1315}, {"measurement": "number of RGCs per retinal area, Control eye, Mean", "setting": "[9]; 3 mg/kg oral daily", "result": 1404}, {"measurement": "RGC Difference % (decrease, lasered vs control eye)", "setting": "[9]; 3 mg/kg oral daily", "result": 5.2, "unit": "%"}, {"measurement": "number of RGCs per retinal area, Lasered eye, Mean", "setting": "[9]; 30 mg/kg oral daily", "result": 1336}, {"measurement": "number of RGCs per retinal area, Control eye, Mean", "setting": "[9]; 30 mg/kg oral daily", "result": 1444}, {"measurement": "RGC Difference % (decrease, lasered vs control eye)", "setting": "[9]; 30 mg/kg oral daily", "result": 7.7, "unit": "%"}, {"measurement": "number of RGCs per retinal area, Lasered eye, Mean", "setting": "[9]; 60 mg/kg oral daily", "result": 1198}, {"measurement": "number of RGCs per retinal area, Control eye, Mean", "setting": "[9]; 60 mg/kg oral daily", "result": 1417}, {"measurement": "RGC Difference % (decrease, lasered vs control eye)", "setting": "[9]; 60 mg/kg oral daily", "result": 13.9, "unit": "%"}, {"measurement": "viability of the RGCs and RGC loss", "setting": "[10]; groups 2, 3 and 4 vs group 1", "result": "significantly increases viability of the RGCs and reduces RCG loss"}, {"measurement": "protection of RGC axons", "setting": "[10]", "result": "protects RGC axons"}, {"measurement": "efficacy in optic neuropathy patients", "setting": "[11]", "result": "effective in treating human patients with optic neuropathy"}, {"measurement": "efficacy in dry AMD patients", "setting": "[12]", "result": "effective in treating human patients with dry AMD"}, {"measurement": "efficacy in retinitis pigmentosa patients", "setting": "[13]", "result": "effective in treating human patients with retinitis pigmentosa"}, {"measurement": "Area under curve (AUC) of IOP, Total Area", "setting": "[14]; 3 mg/kg oral daily", "result": 255}, {"measurement": "Area under curve (AUC) of IOP, Total Area", "setting": "[14]; 30 mg/kg oral daily", "result": 289}, {"measurement": "Area under curve (AUC) of IOP, Total Area", "setting": "[14]; 60 mg/kg oral daily", "result": 295}, {"measurement": "effect on IOP of lasered eyes", "setting": "[14]; 3, 30 and 60 mg/kg oral daily, one-way ANOVA, P≥0.26", "result": "no difference in the IOP of lasered eyes"}]}
